Experimental data taken from patent US20220339187A1, “ANTIMICROBIAL PEPTIDE-SELENIUM NANOPARTICLES” (The University of Melbourne, priority 2019, published 2022).

Legend:
[1] = test system: E. coli ATCC 25922; experiment: Membrane potential change test (BacLight, DiOC2(3)); assay type: cell-based, Escherichia coli; conditions: 6.25 or 12.5 μg/ml (CCCP 5 μM)
Method: Membrane potential change was measured using a BacLight Bacterial Membrane Potential Kit (Invitrogen). The bacterial strain methicillin-sensitive S. aureus (MSSA) ATCC 29213, E. faecalis ATCC 29212, E. coli ATCC 25922 were cultured in MHB at 37° C. 50 μL of different concentrations of Se NPs, Se NP-ε-PL or pure ε-PL in PBS solution was added into each well of 96-well microplates. 50 μL MHB with 2.5×10^6 cells/mL bacteria was then added into each well. 50 μL MHB with 2.5×10^6 cells/mL bacteria was added to 50 μL PBS to act as untreated control. Carbonyl cyanide 3-chlorophenylhydrazone (CCCP) was added to untreated control at a final concentration of 5 μM to act as fully depolarized control. 3,3′-Diethyloxacarbocyanine Iodide (DiOC2(3)) was added to all wells at a final concentration of […]. […] The untreated (polarized) and CCCP-treated (fully depolarized) controls were used to determine the percentage of depolarized cells. Two independent experiments were done for this test, and two technical replicates were adopted for each independent experiment.

[2] = test system: methicillin-sensitive S. aureus ATCC 29213; experiment: Resistance development test; assay type: cell-based, Staphylococcus aureus; conditions: S. aureus cultured at MBC50 concentration
Method: (§1) First, one S. aureus or E. coli colony from an agar plate was inoculated into 20 mL MHB and cultured overnight at 37° C. The bacterial suspensions were diluted to 2.5×10^6 bacteria/mL. […] After every 48 h, CFU assays were performed on these bacteria, and the MBCs were calculated. The change in MBCs over the generations was plotted.

[3] = test system: E. coli ATCC 25922; experiment: Resistance development test; assay type: cell-based, Escherichia coli; conditions: E. coli cultured at MBC50 concentration; 312 generations tested
Method: as §1

Row | SMILES | depolarisation of cell membrane [1] | generations after which resistance started to develop (rise of MBC) [2] | generations after which resistance started to develop (rise of MBC) [3]
1 | N#CC(C#N)=NNc1cccc(Cl)c1 [CCCP, Carbonyl cyanide 3-chlorophenylhydrazone] | minimal activity | – | –
2 | NC[C@H]1O[C@H](O[C@H]2[C@H](O)[C@@H](O[C@H]3O[C@H](CO)[C@@H](O)[C@H](N)[C@H]3O)[C@H](N)C[C@@H]2N)[C@H](O)[C@@H](O)[C@@H]1O [kanamycin] | – | 44 generations | 52 generations
